Paper PMC10675077, “Antimicrobial Properties of New Polyamines Conjugated with Oxygen-Containing Aromatic Functional Groups” (Molecules, 2023)
Values after ≈ are worked out from the molar mass of the structure shown. Where two headings read alike, the source gives them in different places. Marks after values point to notes of the source that are not given here.

Tests used:
[1] = test system: Yeast (S. cerevisiae strains); test: MIC, yeast (strain not specified); format: cell-based, Saccharomyces cerevisiae; conditions: for MIC: Saccharomyces cerevisiae, read-out: MIC Yeast
Procedure: The determination of the MIC for yeast strains was carried out following a similar procedure to that of the polyamines and antifungal reference agents: Serial dilutions of each one in phosphate buffer (20 mM, pH 7.4, 0.5 mL) were prepared and mixed with a suspension of yeast cells (OD600 0.04 in SC-ura 2X (VWR, Atlanta, GA, USA), 0.5 mL). […] Experiments were carried out at least three times in all cases.

[2] = Potentiometric titrations in water (protonation constants); format: physicochemical; conditions: for log β (cumulative protonation constant): calculated as log β = ∑j log KHjL; for n, average number of positive charges at pH 7.4: calculated from protonation constants
Procedure: The potentiometric titrations were carried out at 298.1 ± 0.1 K using NaCl 0.15 M as a supporting electrolyte. The experimental procedure (burette, potentiometer, cell, stirrer, microcomputer, etc.) has been fully described elsewhere. The acquisition of the EMF data was performed with the computer program PASAT [50]. The reference electrode was a Ag/AgCl electrode in a saturated KCl solution. The glass electrode was calibrated as a hydrogen-ion concentration probe via the titration of previously standardised amounts of HCl with CO2-free NaOH solutions and the equivalent point determined using the Gran method, which provides the standard potential, E^θ′, and the ionic product of water (pKw = 13.73(1)).
The computer program […] was used to calculate the protonation constants. The pH range investigated was 2.5–11.0, and the concentration of the ligands ranged from 5 × 10^−4 to 5 × 10^−[…]. The different titration curves for each system (at least two) were treated either as a single set or as separated curves without significant variations in the values of the stability constants. Finally, the sets of data were merged and treated simultaneously to give the final stability constants.

S. aureus BHI = test: Minimal bactericidal concentration, S. aureus; format: cell-based, Staphylococcus aureus; conditions: overnight incubation, plating on LB; for MBC: Staphylococcus aureus
Procedure: (§1) Once the MIC was known, the samples were prepared as described in the previous section with polyamine concentrations corresponding to the MIC and half, double, and four times its value. After overnight incubation with the microorganisms, 30 μL of a ten-fold dilution of each one was spread in LB (in the case of bacterial strains) or SC-ura (for yeast strains) plates. They were incubated for 20 h at 37 °C (bacteria) or 48 h at 30 °C (yeasts), and the level of growth was determined. […] Experiments were carried out at least three times.

[3] = test system: Saccharomyces cerevisiae BY4741/YEplac195; test: microbe, parasite or virus in culture; format: cell-based; conditions: 24 h, 30 °C, average of at least three experiments; for MIC: Saccharomyces cerevisiae, read-out: MIC, Yeast, BY4741/ YEplac195
[4] = test system: Saccharomyces cerevisiae BY4741/YEplac195-PDR5; test: microbe, parasite or virus in culture; format: cell-based; conditions: 24 h; for MIC: Saccharomyces cerevisiae, read-out: MIC, Yeast, BY4741/ PDR5
S. cerevisiae strains = test: Minimal fungicidal concentration, S. cerevisiae strains; format: cell-based, Saccharomyces cerevisiae; conditions: fungistatic = growth on SC-ura plates after incubation at four times the MIC
Procedure: as §1

BY4741/PDR5 = test: Checkerboard titration synergy, BY4741/PDR5; format: cell-based, Saccharomyces cerevisiae; conditions: synergistic when FICI ≤0.5
Procedure: The combined antimicrobial activity of the test compounds with the antibacterial or antifungal control agents was performed under the same conditions used for the MIC determination and following the procedures described by Carton Herrán, Reis de Sá et al. and Zharkova et al.. For each experiment, 16 samples (4 rows × 4 columns) in a total volume of 0.5 mL were prepared in tubes using an array of combinations between the MIC value and 0 μg/mL of the compound to be tested in each row, and between the MIC value and 0 μg/mL of the reference drug in each column. In this way, a variety of mixtures with different concentrations of them alone or in combination was obtained. Briefly, 0.5 mL of a microorganism culture was added to each one of the samples, and after incubation for 24 h with shaking at the appropriate temperature (37 °C or 30 °C), the tubs were visually inspected, and the OD600 was measured. From this information, the fractional inhibitory concentration index (FICI) was calculated according to the formula FIC index = ([A]/[CMI A]) + ([B]/[CMI B]), where [A] and [B] are respective concentrations of tested polyamine and reference drug in their combination effectively inhibiting the growth of bacteria or yeast, and [MIC A] and [MIC B] are the individual MICs of the tested polyamine and reference drug when they are used alone. An interaction is considered synergistic when the FICI value is ≤0.5 [41, 42].
To confirm the data obtained in the checkerboard assay, 30 μL of a ten-fold dilution of the tubes containing concentrations of half of the MIC of each one of the compounds alone (polyamine to be tested and reference drug) and one fourth of the MIC of each one in combination were also spread in LB or SC-ura plates (according to the microorganism considered in each case) and incubated at 37 °C or 30 °C. The visualisation of these plates was performed after 24 or 48 h, respectively. All these experiments were carried out in triplicate.

[5] = parameters: method as in PMID 37335019; conditions: 298 K, 0.15 mol/dm NaCl; error in last figure in parentheses; cited from earlier work
[6] = yeast strain not specified (Tables 5 and 10)
[7] = 298 K, 0.15 mol/dm^3 NaCl, error in last figure in parentheses

In the case of `c1cc2nc(c1)CNCCN(CCNCc1ccc3c(c1)OCO3)CCNC2` [Compound 5a, 2-(3,6,9-triaza-1(2,6)-pyridinacyclodecaphane-6-yl)-N-(benzo[d][1,3]dioxol-5-ylmethyl)ethan-1-amine], the MIC [1, 6] is reported as 60 µg/mL (≈ 156 µM), the “Stepwise protonation constant (log K), H2L + H ⇄ H3L” value [2, 7] is reported as 7.30 (1) and the “Stepwise protonation constant (log K), L + H ⇄ HL” value [2, 7] is reported as 10.48 (1). For the same compound, the “Stepwise protonation constant (log K), LH + H ⇄ H2L” value [2, 7] was 8.78 (1), the “log β (cumulative protonation constant)” value ([2]; 298 K, 0.15 mol/dm^3 NaCl) was 26.56 and the “n, average number of positive charges at pH 7.4” value (“n, average number” below) [2] was 2.4. For the same compound, the MBC (S. aureus BHI) was 70 µg/mL (≈ 183 µM), the MIC [3] was 60 µg/mL and the MIC [4] was 60 µg/mL. The “Minimal fungicidal concentration (MFC), S. cerevisiae Strains” value (shortened to “Minimal fungicidal concentration (MFC)”) (S. cerevisiae strains) was “Fungistatic”, the “Synergy with Amphotericin B” value (BY4741/PDR5) was “positive results and +” and the “Synergy with Cycloheximide” value (BY4741/PDR5) was “positive results and +”.

In the case of `Oc1ccccc1CNCCN1CCNCc2cccc(n2)CNCC1` [Compound 6a], the MIC [1, 6] is reported as 45 µg/mL (≈ 127 µM), the “n, average number” value [2] is reported as 1.91 and the MBC (S. aureus BHI) is reported as 160 µg/mL (≈ 450 µM). The MIC [3] was 45 µg/mL, the MIC [4] was 45 µg/mL and the “Stepwise protonation constant (log K), H2L + H ⇄ H3L” value [5] was 7.92 (1). The “Stepwise protonation constant (log K), H3L + H ⇄ H4L” value [5] was 6.67 (2), the “Stepwise protonation constant (log K), L + H ⇄ HL” value [5] was 9.93 (1) and the “Stepwise protonation constant (log K), LH + H ⇄ H2L” value [5] was 9.11 (1). The “Minimal fungicidal concentration (MFC)” value (S. cerevisiae strains) was “Fungistatic”, the “Synergy with Amphotericin B” value (BY4741/PDR5) was “positive results and +” and the “Synergy with Cycloheximide” value (BY4741/PDR5) was “positive results and +”.

For `Oc1ccc(CNCCN2CCNCc3cccc(n3)CNCC2)cc1` [Compound 7a], the MIC [1] was 295 µg/mL (≈ 830 µM), the “log β (cumulative protonation constant)” value ([2]; 298 K, 0.15 mol/dm^3 NaCl) was 35.48 and the “n, average number” value [2] was 2.4. The MIC [3] was 295 µg/mL, the MIC [4] was 295 µg/mL and the “Stepwise protonation constant (log K), H2L + H ⇄ H3L” value [5] was 8.516 (8). For the same compound, the “Stepwise protonation constant (log K), H3L + H ⇄ H4L” value [5] was 7.341 (9), the “Stepwise protonation constant (log K), L + H ⇄ HL” value [5] was 10.153 (9) and the “Stepwise protonation constant (log K), LH + H ⇄ H2L” value [5] was 9.473 (9).

With `c1cc2nc(c1)CNCCN(CCNCc1ccc3c(c1)CCO3)CCNC2` [Compound 8a, 2-(3,6,9-triaza-1(2,6)-pyridinacyclodecaphane-6-yl)-N-((2,3-dihydrobenzofuran-5-yl)methyl)ethan-1-amine] the MIC [1, 6] was 400 µg/mL (≈ 1050 µM), the “Stepwise protonation constant (log K), H2L + H ⇄ H3L” value [2, 7] was 7.296 (4) and the “Stepwise protonation constant (log K), L + H ⇄ HL” value [2, 7] was 9.943 (3). For the same compound, the “Stepwise protonation constant (log K), LH + H ⇄ H2L” value [2, 7] was 8.736 (3), the “log β (cumulative protonation constant)” value ([2]; 298 K, 0.15 mol/dm^3 NaCl) was 26.17 and the “n, average number” value [2] was 2.4. The MBC (S. aureus BHI) was 400 µg/mL (≈ 1050 µM), the MIC [3] was 400 µg/mL and the MIC [4] was 400 µg/mL.

In the case of “N^1-(benzo[d][1,3]dioxol-5-ylmethyl)-N^3-(2-((2-((3-((benzo[d][1,3]dioxol-5-ylmethyl)amino)propyl)amino)ethyl)(2-((3-(((2,3-dihydrobenzofuran-6-yl)methyl)amino)propyl)amino)ethyl)amino)ethyl)propane-1,3-diamine [Compound 4a]”, the “MIC Yeast” value [1, 6] is reported as 150 µg/mL, the “Stepwise protonation constant (log K), H2L + H ⇄ H3L” value [2, 7] is reported as 9.12 (1) and the “Stepwise protonation constant (log K), H3L + H ⇄ H4L” value [2, 7] is reported as 8.07 (1). For the same compound, the “Stepwise protonation constant (log K), H4L + H ⇄ H5L” value [2, 7] was 7.48 (1), the “Stepwise protonation constant (log K), H5L + H ⇄ H6L” value [2, 7] was 6.35 (2) and the “Stepwise protonation constant (log K), L + H ⇄ HL” value [2, 7] was 10.95 (1). The “Stepwise protonation constant (log K), LH + H ⇄ H2L” value [2, 7] was 9.63 (1), the “log β (cumulative protonation constant)” value ([2]; 298 K, 0.15 mol/dm^3 NaCl) was 51.60 and the “n, average number” value [2] was 4.5. For the same compound, the “Minimal bactericidal concentration (MBC), S. aureus BHI” value (S. aureus BHI) was 8 ^a µg/mL, the “MIC, Yeast, BY4741/ YEplac195” value [3] was 150 µg/mL and the “MIC, Yeast, BY4741/ PDR5” value ([4]; 30 °C, Pdr5-overexpressing strain) was 150 µg/mL. For the same compound, the “Minimal fungicidal concentration (MFC)” value (S. cerevisiae strains) was “Fungistatic”, the “Synergy with Amphotericin B” value (BY4741/PDR5) was “positive results and +” and the “Synergy with Cycloheximide” value (BY4741/PDR5) was “positive results and +”.
